# Measurements: PubChem BioAssay AID720677 (Sanford-Burnham Center for Chemical Genomics, 2013)
# The source made the active and inactive calls.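 How the source made its calls: active means compounds whose IC50 is at or below a set limit; inactive means the rest.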
# Biological target: Bcl-2-like protein 10 (Homo sapiens) (UniProt Q9HD36)
# Experiment: Bcl-B inhibitors displacing Bim peptide, SAR follow-up, biochemical, fluorescence polarization, set 2 (AID 720677)
# Settings: GST-Bcl-B / FITC-Bim peptide fluorescence polarization displacement
# Chain of Bcl-2-like protein 10 (Homo sapiens) (Q9HD36 whole entry, looked up): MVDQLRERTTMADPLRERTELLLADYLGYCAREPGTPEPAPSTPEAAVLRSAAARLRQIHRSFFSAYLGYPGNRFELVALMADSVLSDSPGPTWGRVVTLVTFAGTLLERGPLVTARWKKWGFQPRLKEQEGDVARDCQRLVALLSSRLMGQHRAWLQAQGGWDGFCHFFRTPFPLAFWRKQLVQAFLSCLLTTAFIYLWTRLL
row,Compound,IC50
1,COc1cccc(Cn2c(=O)c3c(n4nnnc24)-c2ccccc2CC32CCCC2)c1,985 nM
2,COc1ccc(Cn2c(=O)c3c(n4nnnc24)-c2cc(F)ccc2CC32CCCC2)cc1,1010 nM
3,COc1ccccc1Cn1c(=O)c2c(n3nnnc13)-c1ccccc1CC21CCCC1,> 20000 nM (inactive)

# The next lines start with the values.
row,IC50,Compound
1,> 20000 nM (inactive),O=c1c2c(n3nnnc3n1Cc1ccccc1Cl)-c1ccccc1CC21CCCC1
2,795 nM,COc1ccc(Cn2c(=O)c3c(n4nnnc24)-c2ccccc2CC32CCCC2)cc1
3,3430 nM,COc1ccc(Cn2c(=O)c3c(n4cnnc24)-c2cc(F)ccc2CC32CCCC2)cc1
4,> 20000 nM (inactive),O=c1c2c(n3cnnc3n1Cc1ccc(F)cc1)-c1cc(F)ccc1CC21CCCC1
